Reference: patent publication US8475772B2, “Peptide-based oral care surface reagents for personal care” (E I du Pont de Nemours and Company, priority 2003, dated 2013)
Several values for one entry are separate records, joined by “and”; a condition that tells them apart may be missing. Equal values may be shown once. Where no end group is shown, it is not given here.

Tests used:
[1] = Phage ELISA on hair surfaces; type: binding, human; conditions: for Hair A450: phage clone on hair, 37° C. 15 min, anti-M13 HRP, mean of at least three replicates
Method: (§1) Enzyme-linked immunosorbent assay (ELISA) was used to evaluate the hair-binding specificity of selected phage-peptide clones. Phage-peptide clones identified in Examples 1 and 2 along with a randomly chosen control G-F9, KHGPDLLRSAPR (given as SEQ ID NO:63) were amplified. More than 10^14 pfu phages were added to pre-blocked hair surfaces.
(§2) A unique hair or pig skin-bottom 96-well apparatus was created by applying one layer of Parafilm® under the top 96-well block of a Minifold I Dot-Blot System (Schleicher & Schuell, Inc., Keene, N.H.), adding hair or a layer of hairless pig skin on top of the Parafilm® cover, and then tightening the apparatus. For each clone to be tested, the hair-covered well was incubated for 1 h at room temperature with 200 μL of blocking buffer, consisting of 2% non-fat dry milk (Schleicher & Schuell, Inc.) in TBS. A second Minifold system with pig skin at the bottom of the wells was treated with blocking buffer simultaneously to serve as a control. The blocking buffer was removed by inverting the systems and blotting them dry with paper towels. The systems were rinsed 6 times with wash buffer consisting of TBST-0.05%. The wells were filled with 200 μL of TBST-0.5% containing 1 mg/mL BSA and then 10 μL (over 10^12 copies) of purified phage stock was added to each well. The samples were incubated at 37° C. for 15 min with slow shaking. The non-binding phage was removed by washing the wells 10 to 20 times with TBST-0.5%. Then, 100 μL of horseradish peroxidase/anti-M13 antibody conjugate (Amersham USA, Piscataway, N.J.), diluted 1:500 in the blocking buffer, was added to each well and incubated for 1 h at room temperature. The conjugate solution was removed and the wells were washed 6 times with TBST-0.05%. TMB substrate (200 μL), obtained from Pierce Biotechnology (Rockford, Ill.) was added to each well and the color was allowed to develop for between 5 to 30 min, typically for 10 min, at room temperature. Then, stop solution (200 μL of 2 M H2SO4) was added to each well and the solution was transferred to a 96-well plate and the A450 was measured using a microplate spectrophotometer (Molecular Devices, Sunnyvale, Calif.). The resulting absorbance values, reported as the mean of at least three replicates, and the standard error of the mean (SEM) are given in Table 10.

[2] = Phage ELISA on pig skin surfaces (specificity control); type: binding; conditions: for Pig Skin A450: phage clone on pig skin, 37° C. 15 min, anti-M13 HRP, mean of at least three replicates
Method: as §1, §2

[3] = Interfiber friction test, low load, against another single hair fiber; parameters: species or system human; conditions: mean of fibers; normal force 8.5 mg
Method: (§3) IL) in distilled water. The aqueous solution was mixed at 7000 rpm for 4 min using a Silverson […] High Shear Laboratory Mixer (Silverson Machines, Inc., East Longmeadow, Mass.) with a general purpose disintegrating head and a 0.95 cm mini-micro tubular frame. A 0.5% solution of Dow Corning® 929 Cationic Emulsion (Dow Corning Corp., Midland, Mich.), a commercial conditioning agent, in distilled water was prepared using identical mixing conditions. European dark brown hair swatches (International Hair Importers and Products) were cleaned before testing by immersing in isopropanol for 30 min, then washing 10 times with distilled water. Single hair fibers from these swatches were sent to Textile Research Institute (TRI), Princeton, N.J., for friction testing. […] Frictional force measurements of treated hair fibers were measured by the Interfiber friction test using a single-fiber friction apparatus, as described by […] et al. (J. Appl. Polymer Sci., 85:394-414 (2002)). Hair fibers were evaluated at high normal forces (high load) (0.74 g) against a chromed steel wire, crosshead speed of 1 mm/min, using an Instron Tensile Testing machine. Low normal forces (low load) (8.5 mg) were measured against another single hair fiber using the TRI/ScanTM Surface Force Analyzer (Textile Research Institute). […]

[4] = Fiber friction test, high load, against chromed steel wire; parameters: species or system human; conditions: normal force 0.74 g
Method: as §3

[5] = Titer-based phage binding assay on normal hair; parameters: species or system human; conditions: output pfu retained by 10 mg normal hair; input 10^14 pfu of phage clone; acid-eluted phage
Method: Phage clones displaying specific peptides were used for comparing the binding characteristics of different peptide sequences. A titer-based assay was used to quantify the phage binding. This assay measures the output pfu retained by 10 mg of hair surfaces, having a signal to noise ratio of 10^3 to 10^4. The input for all the phage clones was 10^14 pfu. It should be emphasized that this assay measures the peptide-expressing phage particle, rather than peptide binding.
Normal hairs were cut into 0.5 cm lengths and 10 mg of the cut hair was placed in each well of a 96-well filter plate (Qiagen). Then, the wells were filled with blocking buffer containing 1 mg/mL BSA in TBST-0.5% and incubated for 1 h at 4° C. The hairs were washed 5 times with TBST-0.5%. The wells were then filled with 1 mL of TBST-0.5% containing 1 mg/mL BSA and then purified phage clones (10^14 pfu) were added to each well. The hair samples were incubated for 15 min at room temperature and then washed 10 times with TBST-0.5%. The hairs were transferred to a clean well and 1.0 mL of a non-specific elution buffer, consisting of 1 mg/mL BSA in 0.2 M Glycine-HCl at pH 2.2, was added to each well. The samples were incubated for 10 min and then 160 μL of neutralization buffer (1 M Tris-HCl, pH 9.2) was added to each well. The eluted phages from each well were transferred to a new tube for titering and sequencing analysis.
To titer the bound phages, the eluted phage was diluted with SM buffer to prepare 10-fold serial dilutions of 10^1 to 10^8. A 10 μL aliquot of each dilution was incubated with 200 μL of mid-log phase E. coli ER2738 (New England BioLabs), and grown in LB medium for 20 min and then mixed with 3 mL of agarose top (LB medium with 5 mM MgCl2, and 0.7% agarose) at 45° C. This mixture was spread onto a LB medium/IPTG/Xgal plate (LB medium with 15 g/L agar, 0.05 g/L IPTG, and 0.04 g/L Xgal) and incubated overnight at 37° C.

[6] = MB50 ELISA of biotinylated peptides on hair; type: binding, human; conditions: for EC50: biotinylated peptide with C-terminal amidated cysteine; for binding affinity for hair (in words): respective substrate hair
Method: (§4) Hair-binding and skin-binding peptides were synthesized by Syn Pep Inc. (Dublin, Calif.). The peptides were biotinylated by adding a biotinylated lysine residue at the C-terminus of the amino acid binding sequences for detection purposes and an amidated cysteine was added to the C-terminus of the sequence.
(§5) For hair samples, the procedure used was as follows. The setup of the surface specific 96-well system used was the same as that described in Example 5. Briefly, the 96-wells with hair or pig skin surfaces were blocked with blocking buffer (SUPERBLOCK™ from Pierce Chemical Co., Rockford, Ill.) at room temperature for 1 h, followed by six washes with TBST-0.5%, 2 min each, at room temperature. Various concentrations of biotinylated, binding peptide were added to each well, incubated for 15 min at 37° C., and washed six times with TBST-0.5%, 2 min each, at room temperature. Then, streptavidin-horseradish peroxidase (HRP) conjugate (Pierce Chemical Co.) was added to each well (1.0 μg per well), and incubated for 1 h at room temperature. After the incubation, the wells were washed six times with TBST-0.5%, 2 min each at room temperature. Finally, the color development and the measurement were performed as described in Example 5.
(§6) The results were plotted as A450 versus the concentration of peptide using GraphPad Prism 4.0 (GraphPad Software, Inc., San Diego, Calif.).

[7] = Peptide competition ELISA on normal hair; type: binding, human
Method: The purpose of this Example was to test the peptide binding site specificity and affinity of the hair-binding peptide D21 using a competition ELISA. The ELISA assay only detects phage particles that remain bound to the hair surface.
The synthetic hair-binding peptide D21, given as SEQ ID NO:46, was synthesized by SynPep (Dublin, Calif.). As a control, an unrelated synthetic skin-binding peptide, given as SEQ ID NO:61, was added to the system. The experimental conditions were similar to those used in the ELISA method described in Example 5. Briefly, 100 μL of Binding Buffer (1×TBS with 0.1% Tween®20 and 1 mg/mL BSA) and 10^11 pfu of the pure D21 phage particles were added to each well of the 96-well filter plate, which contained a sample of normal hair. The synthetic peptide (100 μg) was added to each well (corresponding to concentration of 0.8 mM). The reactions were carried out at room temperature for 1 h with gentle shaking, followed by five washes with TBST-0.5%. The remaining steps were identical to the those used in the ELISA method described in Example 5. Each individual ELISA test was performed in triplicate; the values in Table 11 are the means of the triplicate determinations.

[8] = MB50 ELISA of biotinylated peptides on pig skin; type: binding; conditions: for EC50: Substrate Pig Skin, biotinylated peptide with C-terminal amidated cysteine; for binding affinity for skin (in words): pig skin
Method: as §4, §5
For the measurement of MB50 of the peptide-skin complexes, the following procedure was used. First, the pigskin was treated to block the endogenous biotin in the skin. This was done by adding streptavidin to the blocking buffer. After blocking the pigskin sample, the skin was treated with D-biotin to block the excess streptavidin binding sites. The remaining steps were identical to those used for the hair samples.
as §6

Substance	Hair A450 [1]	Pig Skin A450 [2]	Phage Titer [5]	further results
AKTHKHPAPSYS (Hair-binding peptide) [Clone C13]	0.375	0.024		
Conditioner: SEQ ID NO:46 covalently linked to behenyl alcohol; tested at 0.25% with 1.5% lecithin in water (RTNAADHPAAVT; also: covalently linked to behenyl alcohol, site not given here)				Friction Force Ff, Low Load, Mean [3]: 0.304 mg; Friction Force Ff, High Load, Mean ([4]; mean of fibers): 0.055 g; Friction Force Ff, High Load ([4]; single fibers 1-4): 0.041 g and 0.057 g and 0.070 g and 0.051 g
DLHTVYH [Clone A]			7.50 × 10^4	
EQISGSLVAAPW (Hair-binding peptide) [Clone A5]	0.431	0.256		
GPHDTSSGGVRPNLHHTSKKEKRENRKVPFYSHSVTSRGNV (Hair-binding peptide) [Clone D5]	0.652	0.104	1.67 × 10^8	
HIKPPTR [Clone B]			1.21 × 10^5	
HLTVPWRGGGSAVPFYSHSQITLPNH (Hair-binding peptide) [Clone F]			1.11 × 10^6	
HPMSAPR (Hair-binding peptide) [Clone I]			1.17 × 10^6	
HPVWPAI [Clone D]			8.20 × 10^4	
KHGPDLLRSAPR (Control peptide) [Clone G-F9, reference compound]	0.074	−0.137		
KHPTYRQ [Clone H]			1.30 × 10^6	
LGIPQNL [Clone D39]	0.685	0.086		
LPRIANTWSPS [Clone F35]				EC50 ([6]; Substrate Bleached Hair): 3000 nM; binding affinity for hair (in words) [6]: high
MHAHSIA [Clone A36]	0.585	0.173		
MPKYYLQ [Clone J]			1.24 × 10^6	
MPLYYLQ [Clone E]			1.70 × 10^5	
NSPGYQADSVAIG (Hair-binding peptide) [Clone D30]	0.414	0.287		
RTNAADHPAAVT [Clone D21]	1.051	0.04		selectivity for hair compared to pig skin ([1]; phage ELISA hair vs pig skin): highest selectivity for hair; binding affinity for hair (in words) ([1]; phage ELISA, versus control G-F9): very strong affinity for hair; affinity for pig skin (in words) ([2]; phage ELISA): very low affinity for pig skin; A450 ([7]; 10^11 pfu D21 phage on normal hair, synthetic peptide 100 μg per well (0.8 mM), mean of triplicate): 1.878; competition with phage clone D21 for hair binding sites (in words) ([7]; synthetic peptide 0.8 mM): does compete with the phage clone D21 for the same binding sites on the hair surface; EC50 ([6]; Substrate Normal Hair): 2000 nM; binding affinity for hair (in words) [6]: high; EC50 [8]: 40000 nM; binding affinity for skin (in words) [8]: relatively low
SLNWVTIPGPKI (Hair-binding peptide) [Clone C10]	0.542	0.032		
TAATTSP [Clone B1]	0.42	0.127		
TDMQAPTKSYSN (Hair-binding peptide) [Clone C5]	0.548	0.047		
TPALDGLRQPLR (Hair-binding peptide) [Clone C18]	0.34	0.132		
TPFHSPENAPGS [SEQ ID NO: 61]				EC50 [8]: 700 nM; binding affinity for skin (in words) [8]: high
TPPELLHGDPRS [Clone I-B5]				EC50 ([6]; Substrate Normal and Bleached Hair): 300 nM; binding affinity for hair (in words) [6]: high; EC50 [8]: > 100000 nM; binding affinity for skin (in words) [8]: relatively low
